Measurements reported in patent US10786575B2, “Self-emulsifying composition of Ω3 fatty acid” (priority 2015, dated 2020).
Where two headings read alike, the source gives them in different places.

What was measured:
[1] = human, in vivo, po, 3600 mg
Experimental: (§1) The capsule having the self-emulsifying composition of the present invention containing 80% by weight of EPA-E as its content was orally administered to human (12 cases, healthy adult males of 20 to 40 years old with a body weight of 55.0 to 77.0 kg and a BMI of 18.5 or more but less than 25.0) under fasting conditions to evaluate the change of blood EPA concentration. The self-emulsifying composition in an amount corresponding to 1800 mg of EPA-E was orally administered in single dose to each human who had been fasted since 10 hours or more before the administration by using 200 mL of water in the morning under fasting. The blood was collected 0.5, 1, 1.5, 2, 3, 4, 5, 6, 7, 8, 9, 10, 12, 15, 18, 24, 48 and 72 hours after the administration. Immediately after the collection, the blood was cooled on ice, and centrifuged at 2000×g at 4° C. for 10 minutes to separately collect the plasma. After having stored the resulting plasma at a temperature not higher than −20° C. in frozen state, concentration of the EPA in the plasma was measured by LC/MS/MS (method in which a sample is isolated by liquid chromatography, then subjected to mass spectrometry to conduct separation and measurement thereon).
(§2) The capsule having the self-emulsifying composition of the present invention containing 80% by weight of EPA-E as its content was also orally administered to human immediately after meals, and the measurement was conducted by repeating the procedure as described above.
(§3) For the control group, the EPA-E stock solution (high purity EPA-E (at least 96.5% by weight) containing no emulsifier or the like and used with the same EPA-E amount as that of the self-emulsifying composition of the present invention; the same applying hereafter) filled in the capsule was orally administered to human (12 cases, healthy adult males of 20 to 40 years old with a body weight of 55.0 to 77.0 kg and a BMI of 18.5 or more but less than 25.0) under fasting conditions (fasting since at least 10 hours before the administration), and the measurement was conducted by repeating the procedure as described above.
This test was conducted on 6 humans. […] In the calculation of each parameter, correction was made by subtracting the blood EPA concentration before the administration from the measured blood concentration.

[2] = Test Example 5: pharmacokinetics in beagles (plasma EPA, LC/MS/MS); design: species or system male beagles; details: dog, in vivo, po, 600 mg
Experimental: The produced compositions or capsules (Examples 1, 3 and 5) were each orally administered to 6 male beagles (at the age of 2 to 6 years with the body weight of 8 to 13 kg, 3 Marshall beagles and 3 Nosan beagles) under fasting conditions, and blood EPA concentration was evaluated. […] The control group was administered with the EPA-E stock solution encapsulated in a capsule.

[3] = human, in vivo, po, 1800 mg
Experimental: as §1, §2, §3
In the calculation of each parameter, correction was made by subtracting the blood EPA concentration before the administration from the measured blood concentration.

AUC0-72 hr [1]: 113.7 µg·h/mL
Cmax [1]: 3.6 µg/mL
Tmax [1]: 21.8 h
t½ [1]: 22.8 h
AUC0-1 [2]: 11.3 µg·h/mL
AUC0-26 [2]: 76.6 µg·h/mL
Cmax [2]: 18.4 µg/mL
AUC0-72 hr [3]: 113.1 µg·h/mL
Cmax [3]: 4.6 µg/mL
Tmax [3]: 10.8 h
t½ [3]: 71.7 h
SMILES: CC/C=C\C/C=C\C/C=C\C/C=C\C/C=C\CCCC(=O)OCC [Comp. Ex. 5, Ethyl eicosapentaenoate]
